Source: patent US9115117B2, “Substituted piperidine compounds and their use as orexin receptor modulators” (JANSSEN PHARMACEUTICA NV, priority 2013, dated 2015)
pKi: −log10 of the molar value. Where two headings read alike, the source gives them in different places.

What was measured:
[1] = biological target: rat orexin 1 receptor (Rattus norvegicus, UniProt P56718); test: Rat orexin 1 receptor radioligand binding; settings: HEK293 cells stably expressing rat orexin 1 receptor; apparent Ki; read-out: rOX1 Ki
Outline: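 Homogenized cell suspensions competed against 4 nM final of a tritiated oxadiazolyl-pyrrolidinyl thiazole methanone radioligand (35.3 Ci/mmol) in PBS, with DMSO ≤0.1%. Nonspecific binding defined with 10 μM almorexant; after washing and drying, bound radioactivity counted by scintillation.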

[2] = biological target: human orexin 1 receptor (Homo sapiens, UniProt O43613); test: Human orexin 1 receptor radioligand binding; settings: CHO cells stably expressing human orexin 1 receptor; apparent Ki; read-out: hOX1 Ki
Procedure: The in vitro affinity of the compounds of the invention for the rat/human orexin 1 and human orexin 2 receptors was determined by competitive radioligand binding using [^3H](1-(5-(2-fluoro-phenyl)-2-methyl-thiazol-4-yl)-1-((S)-2-(5-phenyl-(1,3,4)oxadiazol-2-ylmethyl)-pyrrolidin-1-yl)-methanone)(Langmead et al., 2004) and [^3H]EMPA (n-ethyl-2[96-methoxy-pyridin-3-yl)-(toluene-2-sulfonyl)-amino]-N-pyridin-3-ylmethyl acetamide), respectively (Langmead et al., 2004, British Journal of Pharmacology 141:340-346; Malherbe et al., 2004, British Journal of Pharmacology 156:1326-41).
Human Embryonic Kidney 293 cells (HEK293) stably expressing rat orexin 1 receptor (Genebank accession number NM_001525) or Chinese ovary cells (CHO) stably expressing human orexin 1 receptor (Genebank accession number NM_001526) were grown to confluency in DMEM (Hyclone, cat #SH30022), 10% FBS, 1× Pen/Strep, 1× sodium pyruvate, 10 mM HEPES, 600 µg/mL G418 and DMEM/F12 (Gibco, Cat #11039), 10% FBS, 1× Pen/Strep, 600 µg/mL G418 media, respectively on 150 cm^2 tissue culture plates, washed with 5 mM EDTA in PBS (HyClone Dulbecco's Phoshpate Buffered Saline 1× with Calcium and Magnesium, Cat #SH30264.01, hereafter referred to simply as PBS) and scraped into 50 ml tubes. After centrifugation (2K×G, 5 min at 4° C.), the supernatant was aspirated and the pellets frozen and stored at −80° C. Cells were resuspended in PBS in the presence of 1 tablet of protease inhibitor cocktail (Roche, Cat. #11836145001) per 50 mL. Each cell pellet from a 15 cm plate was resuspended in 10 mL, stored on ice, and homogenized for 45 sec prior to addition to the reactions. Competition binding experiments in 96 well polypropylene plates were performed using [^3H]-(1-(5-(2-fluoro-phenyl)-2-methyl-thiazol-4-yl)-1-((S)-2-(5-phenyl-(1,3,4)oxadiazol-2-ylmethyl)-pyrrolidin-1-yl)-methanone) (Moraveck Corporation, specific activity=35.3 Ci/mmol), diluted to a 10 nM concentration in PBS (4 nM final). […] The final concentration of DMSO in the reactions is equal to or less than 0.1%. Total and nonspecific binding was determined in the absence and presence of 10 μM almorexant. The total volume of each reaction is 200 μL (20 μL of diluted compounds, 80 μL of [3H]-(1-(5-(2-fluoro-phenyl)-2-methyl-thiazol-4-yl)-1-((S)-2-(5-phenyl-(1,3,4)oxadiazol-2-ylmethyl)-pyrrolidin-1-yl)-methanone) diluted in PBS and 100 μL of the cell suspension). Reactions were run for 60 min at room temperature and terminated by filtration through GF/C filter plates (PerkinElmer, Cat. #6005174) presoaked in 0.3% polyethylenimine using the cell harvester (PerkinElmer Filtermate). The plates were washed 3 times by aspirating 30 ml PBS through the plates. Plates were dried in 55° C. oven for 60 min, scintillation fluid was added, and the radioactivity was counted on a Topcount (Packard).

[3] = biological target: human orexin 2 receptor (Homo sapiens (Human), UniProt O43614); test: Human orexin 2 receptor radioligand binding ([3H]-EMPA)
Outline: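 Competition binding with 2 nM final [3H]-EMPA in PBS against homogenized whole-cell suspension; DMSO ≤0.1%. Nonspecific binding defined with […] almorexant. Plates washed with PBS, dried, and bound radioactivity counted by scintillation.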

[4] = HEK293 stably expressing human orexin 2 receptor, [3H]-EMPA, apparent Ki, read-out: hOX2 Ki

human orexin 2 receptor, sequence (O43614 whole entry): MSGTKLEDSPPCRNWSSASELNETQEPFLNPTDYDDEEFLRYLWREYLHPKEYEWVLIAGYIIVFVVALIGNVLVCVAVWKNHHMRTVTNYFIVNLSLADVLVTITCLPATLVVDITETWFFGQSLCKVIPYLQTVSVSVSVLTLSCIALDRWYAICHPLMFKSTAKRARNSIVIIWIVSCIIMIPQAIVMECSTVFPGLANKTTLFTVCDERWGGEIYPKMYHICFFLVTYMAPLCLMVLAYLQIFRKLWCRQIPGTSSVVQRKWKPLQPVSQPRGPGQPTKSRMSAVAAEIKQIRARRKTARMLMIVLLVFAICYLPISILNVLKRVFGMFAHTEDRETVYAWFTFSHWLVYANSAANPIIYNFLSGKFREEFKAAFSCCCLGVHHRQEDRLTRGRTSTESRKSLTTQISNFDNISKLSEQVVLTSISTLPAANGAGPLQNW

SMILES	pKi [1]	pKi [2]	pKi [3, 4]	pKi [3]
Cc1ccc(C(=O)N2CCC[C@@H](Nc3ncc(C(F)(F)F)cn3)[C@@H]2C)c(-n2nccn2)n1 [Example 69, (6-methyl-2-(2H-1,2,3-triazol-2-yl)pyridin-3-yl)((2S,3R)-2-methyl-3-((5-(trifluoromethyl)pyrimidin-2-yl)amino)piperidin-1-yl)methanone]	7.15	6.95	< 5.00	
Cc1ccc(C(=O)N2CCC[C@@H](Nc3ncc(C(F)(F)F)cn3)[C@@H]2C)c(-n2ccnn2)n1 [Example 70, (6-methyl-2-(1H-1,2,3-triazol-1-yl)pyridin-3-yl)((2S,3R)-2-methyl-3-((5-(trifluoromethyl)pyrimidin-2-yl)amino)piperidin-1-yl)methanone]	6.77	6.78	5.12	
Cc1ccc(C(=O)N2CCC[C@@H](Nc3ncc(C(F)(F)F)cn3)[C@@H]2C)c(-n2nccn2)c1 [Example 71, (4-methyl-2-(2H-1,2,3-triazol-2-yl)phenyl)((2S,3R)-2-methyl-3-((5-(trifluoromethyl)pyrimidin-2-yl)amino)piperidin-1-yl)methanone]	8.00	7.92	5.82	
Cc1cnc(C(=O)N2CCC[C@@H](Nc3cnc(C(F)(F)F)cn3)[C@@H]2C)c(-n2nccn2)c1 [Example 72, ((2S,3R)-2-methyl-3-((5-(trifluoromethyl)pyrazin-2-yl)amino)piperidin-1-yl)(5-methyl-3-(2H-1,2,3-triazol-2-yl)pyridin-2-yl)methanone]	7.62	7.48	5.40	
Cc1cnc(C(=O)N2CCC[C@@H](Nc3nc4ccccc4o3)[C@@H]2C)c(-n2nccn2)c1 [Example 73, ((2S,3R)-3-(benzo[d]oxazol-2-ylamino)-2-methylpiperidin-1-yl)(5-methyl-3-(2H-1,2,3-triazol-2-yl)pyridin-2-yl)methanone]	8.15	7.68	5.72	
Cc1ccc(C(=O)N2CCC[C@@H](Nc3cnc(C(F)(F)F)cn3)[C@@H]2C)c(-n2nccn2)n1 [Example 74, (6-methyl-2-(2H-1,2,3-triazol-2-yl)pyridin-3-yl)((2S,3R)-2-methyl-3-((5-(trifluoromethyl)pyrazin-2-yl)amino)piperidin-1-yl)methanone]	7.40	7.28		< 5.00
Cc1ccc(C(=O)N2CCC[C@@H](Nc3nc4ccccc4o3)[C@@H]2C)c(-n2nccn2)n1 [Example 75, ((2S,3R)-3-(benzo[d]oxazol-2-ylamino)-2-methylpiperidin-1-yl)(6-methyl-2-(2H-1,2,3-triazol-2-yl)pyridin-3-yl)methanone]	7.64	7.40	5.02	
Cc1ccc(C(=O)N2CCC[C@@H](Nc3nc4ccccc4o3)[C@@H]2C)c(-n2ccnn2)n1 [Example 76, ((2S,3R)-3-(benzo[d]oxazol-2-ylamino)-2-methylpiperidin-1-yl)(6-methyl-2-(1H-1,2,3-triazol-1-yl)pyridin-3-yl)methanone]	7.27	7.21	5.89	
Cc1cnc(C(=O)N2CCC[C@@H](Nc3ccc(Cl)cn3)[C@@H]2C)c(-c2ncco2)c1 [Example 77, ((2S,3R)-3-((5-chloropyridin-2-yl)amino)-2-methylpiperidin-1-yl)(5-methyl-3-(oxazol-2-yl)pyridin-2-yl)methanone]	7.44	7.26	5.40	
Cc1ccc(-c2ncccn2)c(C(=O)N2CCC[C@@H](Nc3ncc(C(F)(F)F)cn3)[C@@H]2C)n1 [Example 78, ((2S,3R)-2-methyl-3-((5-(trifluoromethyl)pyrimidin-2-yl)amino)piperidin-1-yl)(6-methyl-3-(pyrimidin-2-yl)pyridin-2-yl)methanone]	7.52	7.24	6.36	
Cc1ccc(C(=O)N2CCC[C@@H](Nc3cnc(C(F)(F)F)cn3)[C@@H]2C)c(-n2nccn2)c1 [Example 79, (4-methyl-2-(2H-1,2,3-triazol-2-yl)phenyl)((2S,3R)-2-methyl-3-((5-(trifluoromethyl)pyrazin-2-yl)amino)piperidin-1-yl)methanone]	8.10	8.15	5.89	
Cc1cnc(C(=O)N2CCC[C@@H](Nc3ccc(Br)cn3)[C@@H]2C)c(-c2ncco2)c1 [Example 80, ((2S,3R)-3-((5-bromopyridin-2-yl)amino)-2-methylpiperidin-1-yl)(5-methyl-3-(oxazol-2-yl)pyridin-2-yl)methanone]	7.54	7.62	5.31	
Cc1ccc(-c2ncccn2)c(C(=O)N2CCC[C@@H](Nc3nc4ccccc4o3)[C@@H]2C)n1 [Example 81, ((2S,3R)-3-(benzo[d]oxazol-2-ylamino)-2-methylpiperidin-1-yl)(6-methyl-3-(pyrimidin-2-yl)pyridin-2-yl)methanone]	7.85	7.64	7.00	
COc1ccc(C(=O)N2CCC[C@@H](Nc3cnc(C(F)(F)F)cn3)[C@@H]2C)c(-n2nccn2)c1 [Example 82, (4-methoxy-2-(2H-1,2,3-triazol-2-yl)phenyl)((2S,3R)-2-methyl-3-((5-(trifluoromethyl)pyrazin-2-yl)amino)piperidin-1-yl)methanone]	7.28	7.24	5.19	
Cc1cnc(C(=O)N2CCC[C@@H](Nc3cnc(C(F)(F)F)cn3)[C@@H]2C)c(-c2ncco2)c1 [Example 83, ((2S,3R)-2-methyl-3-((5-(trifluoromethyl)pyrazin-2-yl)amino)piperidin-1-yl)(5-methyl-3-(oxazol-2-yl)pyridin-2-yl)methanone]	7.24	7.28	5.15	
Cc1ccc(-c2ncccn2)c(C(=O)N2CCC[C@@H](Nc3cnc(C(F)(F)F)cn3)[C@@H]2C)n1 [Example 84, ((2S,3R)-2-methyl-3-((5-(trifluoromethyl)pyrazin-2-yl)amino)piperidin-1-yl)(6-methyl-3-(pyrimidin-2-yl)pyridin-2-yl)methanone]	7.64	7.55	6.76	
C[C@H]1[C@H](Nc2cnc(C(F)(F)F)cn2)CCCN1C(=O)c1ccccc1-n1nccn1 [Example 85, (2-(2H-1,2,3-triazol-2-yl)phenyl)((2S,3R)-2-methyl-3-((5-(trifluoromethyl)pyrazin-2-yl)amino)piperidin-1-yl)methanone]	8.10	8.00	6.68	
Cc1cnc(C(=O)N2CCC[C@@H](Nc3cnc(Cl)cn3)[C@@H]2C)c(-c2ncco2)c1 [Example 86, ((2S,3R)-3-((5-chloropyrazin-2-yl)amino)-2-methylpiperidin-1-yl)(5-methyl-3-(oxazol-2-yl)pyridin-2-yl)methanone]	6.67	6.60	< 5.00	
Cc1cnc(C(=O)N2CCC[C@@H](Nc3nc4ccccc4o3)[C@@H]2C)c(-c2ncco2)c1 [Example 88, ((2S,3R)-3-(benzo[d]oxazol-2-ylamino)-2-methylpiperidin-1-yl)(5-methyl-3-(oxazol-2-yl)pyridin-2-yl)methanone]	7.89	7.60	5.48	
COc1ccc(-n2nccn2)c(C(=O)N2CCC[C@@H](Nc3ncc(C(F)(F)F)cn3)[C@@H]2C)c1 [Example 89, (5-methoxy-2-(2H-1,2,3-triazol-2-yl)phenyl)((2S,3R)-2-methyl-3-((5-(trifluoromethyl)pyrimidin-2-yl)amino)piperidin-1-yl)methanone]	7.85	8.00	6.43	
